The text below walks through data of patent US20040038952A1, “Pharmaceutical compositions for treatment of digestive disorders and associated diseases” (priority 2000, published 2004).

Entries after “also recorded” stand apart in the source; their conditions may differ.

In assay [1] the test system is Dry eye model in Wistar rats by retrobulbar injection of capsaicin. The assay is described as follows: Topical treatment of "dry eye": capsaicin dry eye model. It counts as in vivo. To be noted: one drop 3 times per day. As for the experimental part: Dry eye model was created in 16 Wistar rats in one eye by retrobulbar injection of capsaicin as it was published in [Camras PCB, Bito L Z: The pathophysiological effects of nitrogen mustard on the rabbit eye. II. The inhibition of the initial hypersensitive phase by capsaicin and the apparent role of substance P. Invest Ophthaimol Vis Sci. 19, 423-8 (1980)], while the other eye (control) was not treated at all.
The following treatments were applied:
A treatment: 4 rats were treated with topical artificial tear drops, one drop 3 times per day;
B treatment: 4 rats were treated with the composition of Example 10, one drop 3 times per day,
C treatment: 4 rats were treated with the composition of Example 10, one drope 3 times per day+one drop of vitamin A 3 times per day (oil drop; 30 000 IU/ml),
D treatment: 4 rats were treated with vitamin A, one drop 3 times per day (oil drop 30 000 IU/ml).
The condition of eyes were registered as written in the literature and evaluated 4 weeks after treatment on the following scale:
1=punctiform ephitelial loss of the cornea;
2=large ephitelial loss of the cornea with mild corneal edema;
3=large ephitelial loss of the cornea with severe corneal edema.

The test system of assay [2] is female patients affected by digestive disorders, "dry eye" syndrome and premenstrual syndrome. The assay is described as follows: Improvement of activity of fat-soluble substances: "dry eye" syndrome symptoms. It counts as in vivo, human. As for the experimental part:
(§1) 72 female patients affected by digestive disorders, “dry eye” syndrome and premenstrual syndrome were treated Intramuscularly administered vitamin A improved the symptoms of “dry eye” and premenstral syndrome, but it was ineffective by peroral administration.
The subjective symptoms were evaluated by questionairs by using the following grade:
“Dry eye” syndrome has the following symptoms: sensation of dryness, foreign body, tired eye, soreness, scatchiness, burning, reduced tearing of emotion, difficulties of opening the eye upon waking, episodes of excessive tearing, particular sensibility to wind, air conditioning, smoking, topical medication. Objective signs: particulate matter on the ocular surface, mucusthread at the inner canthus or in the lower fornix, deposits at the orefices of the meibomian glands, filamentary keratitis, hyperemia of the bulbar conjunctiva, papillary hypertrophy of the tarsal conjunctiva, thin tear meniscus, decreased brightness of the bulbar conjunctiva, frequent blinking, tear film abnormalities with fluorescein staining.
The patients were treated as follows:
(§2) Treatment A: 300.000 IU vitamin A in oil intramuscular administration ones per months,
(§3) Treatment B: 50.000 IU vitamin A acetate dragée peroral administration, once every second day,
(§4) Treatment C: 50.000 IU vitamin A acetate dragée peroral administration, once every second day+composition of the invention (Example 4).

The test system is the same in assay [3]. Nature of the assay: Treatment of premenstrual symptoms. Type of assay: in vivo, human. How it is done: as §1, §2, §3, §4
Symptoms of the premenstrual syndrome: food (sweets or chocolate) craving, exhaustion, irritability, fearfullness, anxiety or depression, hostility, feeling out of control, confusion, sleep disturbances, acne, fluid retention, weight gain, breast swelling, aches and pains, bloating, constipation or diarrhoea.
The number of patients, methods of treatment and the grade of evaluation were the same as shown in experiment 3.

In assay [4] the test system is patients affected by either non-ulcer dyspepsia, biliary dyskinesis or irritable bowel syndrome. The assay is described as follows: Open clinical study in digestive disorders: overall (psychosomatic) condition. It counts as in vivo, human. Particulars: % of cases, 3 months, group A 150 mg ursodeoxycholic acid, group B 300 mg quercetin, group C Example 2; for Overall (psychosomatic) condition: Improved: unrestricted fat diet. The source says: The patients treated with the composition of the invention during or at the end of the meals were able to digest any type of foods including heavy or spicy ones. […] The improvement of the symptoms of patients treated with the composition of Example 2 was higher than that of the bile acid or bioflavonoid treatment alone.
(§5) In these studies 48 patients affected by either non-ulcer dyspepsia, biliary dyskinesis or irritable bowel syndrome were involved. 24 patients with unrestricted fat diet received only 150 mg of ursodeoxycholic acid (group A) and 24 patients only bioflavonoid (300 mg of quercetin) (group B) for 3 months. After one-month washout both groups received ursodeoxycholic acid+quercetin (Example 2) (group C) for another 3 months.
The overall (psychosomatic) condition and subjective symptoms were compared to the results of an age and sex matched control group.
The evaluation of the psychosomatic condition: improved, unchanged, worsened.

The test system is the same in assay [5]. Nature of the assay: Open clinical study in digestive disorders: subjective gastrointestinal symptoms, grade 0-3. It counts as in vivo, human. Particulars: total number of points/number of patients, 3 months, control group value in brackets. How it is done:
as §5
The gastrointestinal symptoms (postprandial early satiety, abdominal distention or bloating, nausea, vomitus, diarrhea, constipation) were evaluated by using the following grading system:
The treatments A, B and C shown in point 1 were used. In Table 2 the average complaint ratio related to one patient was given (average complaint ratio=total number of points/number of patients). The values of the control groups are given in brackets.

[6] abbreviates: Treatment A: 300.000 IU vitamin A in oil, intramuscular, once per month.
The mark [7] stands for this setting: peroral, 50.000 IU vitamin A acetate dragée once every second day (Treatment B alone, Treatment C + Example 4).

Consider vitamin A, for which, in assay [1] (compared to artificial tear drops), the “Improvement of eye alteration (in words)” value is on record as “not significant”. For the same compound, the “Reduced eye alteration compared to treatment with artificial tear drop (treatment A)” value in assay [1] (evaluated 4 weeks after treatment on scale 0-3, vitamin A oil drop 30 000 IU/ml) is recorded as less than 5%. Further, in assay [2] (setting [6]), the “"Dry eye" symptoms: Improved” value was 80% and the “"Dry eye" symptoms: Unchanged” value came out at 20%. The “Symptoms of "dry eye", in words” value in assay [2] (intramuscular administration) is recorded as “improved”. The “Symptoms of "dry eye", in words” value in assay [2] (peroral administration) was “ineffective; also recorded: improved only weakly”. In addition, in assay [3] (setting [6]), the “Premenstrual symptoms: Improved” value is listed as 72% and the “Premenstrual symptoms: Unchanged” value is given as 28%. Further, the “Symptoms of premenstrual syndrome, in words” value in assay [3] (intramuscular administration) is given as “improved”. The “Symptoms of premenstrual syndrome, in words” value in assay [3] (peroral administration) is “ineffective; also recorded: hardly improve”.
Consider `C[C@H](CCC(=O)O)[C@H]1CC[C@H]2[C@@H]3[C@@H](O)C[C@@H]4C[C@H](O)CC[C@]4(C)[C@H]3CC[C@]12C` [ursodeoxycholic acid], for which, in assay [4], the “Overall (psychosomatic) condition: Unchanged or worsened” value is on record as 33% and the “Overall (psychosomatic) condition: Improved” value stood at 67%. In assay [5], the “Diarrhoea/constipation, average complaint ratio” value is 2.19 (2.54); the “Meteorism, average complaint ratio” value is on record as 2.12 (2.78); the “Nausea, average complaint ratio” value is recorded as 0.83 (1.17); the “Satiety, average complaint ratio” value is 2.06 (2.92). Besides, the “Vomitus, average complaint ratio” value in assay [5] was 0.12 (0.83).
Consider `O=c1c(O)c(-c2ccc(O)c(O)c2)oc2cc(O)cc(O)c12` [quercetin], for which, in assay [4], the “Overall (psychosomatic) condition: Unchanged or worsened” value was 55% and the “Overall (psychosomatic) condition: Improved” value is reported as 45%. Moreover, in assay [5], the “Diarrhoea/constipation, average complaint ratio” value is 0.63 (2.54); the “Meteorism, average complaint ratio” value is given as 1.96 (2.33); the “Nausea, average complaint ratio” value is 0.92 (1.25); the “Satiety, average complaint ratio” value is 2.04 (2.86). Besides, in assay [5], the “Vomitus, average complaint ratio” value was 0.46 (0.75).
`CC(=O)OC/C=C(C)/C=C/C=C(C)/C=C/C1=C(C)CCCC1(C)C` [vitamin A acetate]: in assay [2] (setting [7]), the “"Dry eye" symptoms: Improved” value was found to be 12% and the “"Dry eye" symptoms: Unchanged” value came out at 88%. For the same compound, in assay [3] (setting [7]), the “Premenstrual symptoms: Improved” value is 8% and the “Premenstrual symptoms: Unchanged” value came to 92%.
